In patent publication US7563882B2, “Polynucleotides encoding antibodies that bind to the C35 polypeptide” (University of Rochester, priority 2002, dated 2009):

Columns and labels:
[1] = system: EBV-B target cells; experiment: C35 peptide mediated T cell lysis of peptide pulsed EBV-B cells (Table 10); assay type: cell-based, human; conditions: for % Lysis EBV-B cell Target: target pulsed with peptide
[2] = system: Mel 501; experiment: 51Cr release, CD8+ cells stimulated with K104-V113 peptides (Example 17); assay type: cell-based, human; conditions: target Mel 501, effector to target 30:1, CD8+ cells 12 days in IL-2 after fourth stimulation; for Raw Chromium Values: Table 15 (repeat); for Percentage of Target Cells Lysed: Table 16 (repeat)
[3] = system: PCl-13; experiment: as above; assay type: cell-based, human; conditions: target PCl-13, CD8+ cells of donor stimulated with peptide pulsed DCs; for Raw Chromium Values: Table 13; for Percentage of Target Cells Lysed: Table 14
[4] = system: 21NT.A2; experiment: as above; assay type: cell-based, human; conditions: target 21NT.A2
[5] = system: K562; experiment: as above; assay type: cell-based, human; conditions: for Raw Chromium Values: target K562
[6] = system: 21NT; experiment: as above; assay type: cell-based, human; conditions: target 21NT, CD8+ cells of donor stimulated with peptide pulsed DCs; for Raw Chromium Values: Table 13; for Percentage of Target Cells Lysed: Table 14
[7] = system: H16.A2; experiment: as above; assay type: cell-based, human; conditions: for Raw Chromium Values: target H16.A2
[8] = system: PCl-13 K104-V113-Ser; experiment: as above; assay type: cell-based, human; conditions: CD8+ cells of donor stimulated with peptide pulsed DCs; for Raw Chromium Values: Table 13, target PCl-13 K104-V113-Ser; for Percentage of Target Cells Lysed: Table 14, target Pcl-13 K104-V113-Ser
[9] = system: Mel F002; experiment: as above; assay type: cell-based, human; conditions: for Raw Chromium Values: Table 15 (repeat), target Mel F002, effector to target 30:1, CD8+ cells 12 days in IL-2 after fourth stimulation; for Percentage of Target Cells Lysed: Table 16 (repeat), effector to target 30:1, CD8+ cells 12 days in IL-2 after fourth stimulation
[10] = system: 21NT.A2-Ser; experiment: as above; assay type: cell-based, human; conditions: target 21NT.A2-Ser, effector to target 30:1, CD8+ cells 12 days in IL-2 after fourth stimulation; for Raw Chromium Values: Table 15 (repeat); for Percentage of Target Cells Lysed: Table 16 (repeat)
[11] = system: Mel 1359; experiment: as above; assay type: cell-based, human; conditions: target Mel 1359, effector to target 30:1, CD8+ cells 12 days in IL-2 after fourth stimulation; for Raw Chromium Values: Table 15 (repeat); for Percentage of Target Cells Lysed: Table 16 (repeat)
[12] = system: Mel 1700; experiment: as above; assay type: cell-based, human; conditions: target Mel 1700, effector to target 30:1, CD8+ cells 12 days in IL-2 after fourth stimulation; for Raw Chromium Values: Table 15 (repeat); for Percentage of Target Cells Lysed: Table 16 (repeat)
[13] = system: B/C.N cells; experiment: 51Cr release (CML), sensitization of B/C.N to lysis by tumor specific CTL; assay type: cell-based, mouse; conditions: for sensitization of B/C.N cells to lysis by tumor-specific CTL: 4 hours; for peptide concentration to sensitize targets to lysis by CTL: B/C.N targets
[14] = T cell clones from donor with A3, A66, B8 and B41 HLA haplotypes
[15] = Table 13, CD8+ cells of donor stimulated with peptide pulsed DCs
[16] = Table 14, CD8+ cells of donor stimulated with peptide pulsed DCs
[17] = Table 15 (repeat), effector to target 30:1, CD8+ cells 12 days in IL-2 after fourth stimulation
[18] = Table 16 (repeat), effector to target 30:1, CD8+ cells 12 days in IL-2 after fourth stimulation
[19] = T cell clone #72, donor (A2, A3; B18, B44)
[20] = T cell clone #75, donor (A2, A3; B18, B44)
[21] = T cell clone #104, donor (A2, A3; B18, B44)
[22] = T cells from donor with A2, A3, B18, B44 HLA haplotypes raised against 9mer 22-30

Row | Substance | Raw Chromium Values [2] | Percentage of Target Cells Lysed [2] | Raw Chromium Values [3] | Percentage of Target Cells Lysed [3] | Raw Chromium Values [4, 15] | Percentage of Target Cells Lysed [4, 16] | Raw Chromium Values [4, 17] | Percentage of Target Cells Lysed [4, 18] | Raw Chromium Values [5, 15] | Percentage of Target Cells Lysed [5, 16] | Raw Chromium Values [5, 17] | Percentage of Target Cells Lysed [5, 18] | Raw Chromium Values [6] | Percentage of Target Cells Lysed [6] | Raw Chromium Values [7, 15] | Percentage of Target Cells Lysed [7, 16] | Raw Chromium Values [7, 17] | Percentage of Target Cells Lysed [7, 18] | Raw Chromium Values [8] | Percentage of Target Cells Lysed [8] | also measured
1 | GGFPYEKDL [peptide 81-89] | – | – | – | – | – | – | – | – | – | – | – | – | – | – | – | – | – | – | – | – | lytic activity on EBV-B target cells pulsed with peptide [1, 14]: 40.3%
2 | QLVFSKLENGGFPYE [peptide 72-86] | – | – | – | – | – | – | – | – | – | – | – | – | – | – | – | – | – | – | – | – | % Lysis EBV-B cell Target ([1]; T cell clone #46, donor (A2, A3; B18, B44)): 78.5%; lytic activity on EBV-B cells pulsed with peptide ([1]; T cell clones from donor with A2, A3, B18, B44 HLA haplotypes): 78.5%
3 | K104-V113-cys-cys: K104-V113 peptide fragment of C35 containing a cysteinylated cysteine at amino acid position 112 | 4474 | 21.2% | 486 | −1.7% | 1329 | 20.1% | 2337 | 19.1% | 287 | 0.9% | 1713 | 16.2% | 171 | −0.1% | 440 | 0.2% | 1024 | 5.8% | 1772 | 35.3% | Raw Chromium Values [9]: 1713; Percentage of Target Cells Lysed [9]: 11.2%; Raw Chromium Values [10]: 4474; Percentage of Target Cells Lysed [10]: 51.9%; Raw Chromium Values [11]: 2299; Percentage of Target Cells Lysed [11]: 2.5%; Raw Chromium Values [12]: 1857; Percentage of Target Cells Lysed [12]: 7.2%
4 | KITNSRPPCV [K104-V113] | 3729 | 36.0% | 804 | 7.6% | 1429 | 22.4% | 2753 | 24.6% | 311 | 2.0% | 1156 | 8.0% | 137 | −1.5% | 483 | 0.9% | 948 | 4.3% | 1403 | 24.8% | Raw Chromium Values [9]: 1156; Percentage of Target Cells Lysed [9]: 15.7%; Raw Chromium Values [10]: 3729; Percentage of Target Cells Lysed [10]: 41.5%; Raw Chromium Values [11]: 2758; Percentage of Target Cells Lysed [11]: 7.0%; Raw Chromium Values [12]: 1964; Percentage of Target Cells Lysed [12]: 8.9%
5 | L348-56 (I54): peptide of ribosomal protein L3, positions 48-56 with Ile 54; target epitope of tumor-specific CTL (GYKAGMIHI) | – | – | – | – | – | – | – | – | – | – | – | – | – | – | – | – | – | – | – | – | sensitization of B/C.N cells to lysis by tumor-specific CTL [13]: sensitized B/C.N to lysis; peptide concentration to sensitize targets to lysis by CTL [13]: ≤ 0.01 µM
6 | KITNSRPPAV (synthetic analog of human C35 epitope) [K104-V113-Ala] | 2423 | 11.1% | 468 | −2.2% | 763 | 7.3% | 1365 | 6.4% | 246 | −0.9% | 815 | 2.9% | 155 | −0.7% | 479 | 0.9% | 829 | 2.0% | 746 | 6.0% | Raw Chromium Values [9]: 815; Percentage of Target Cells Lysed [9]: 7.6%; Raw Chromium Values [10]: 2423; Percentage of Target Cells Lysed [10]: 22.5%; Raw Chromium Values [11]: 3050; Percentage of Target Cells Lysed [11]: 9.9%; Raw Chromium Values [12]: 1543; Percentage of Target Cells Lysed [12]: 2.4%
7 | KITNSRPPSV (synthetic analog of human C35 epitope) [K104-V113-Ser] | 4762 | 45.3% | 581 | 1.1% | 3228 | 63.2% | 4957 | 53.4% | 323 | 2.5% | 974 | 5.3% | 185 | 0.5% | 584 | 2.6% | 1018 | 5.6% | 2588 | 58.7% | Raw Chromium Values [9]: 974; Percentage of Target Cells Lysed [9]: 15.1%; Raw Chromium Values [10]: 4762; Percentage of Target Cells Lysed [10]: 56.0%; Raw Chromium Values [11]: 2357; Percentage of Target Cells Lysed [11]: 3.0%; Raw Chromium Values [12]: 2951; Percentage of Target Cells Lysed [12]: 24.1%
8 | peptide 17-31: 15mer corresponding to amino acids 17-31 of C35 (SEQ ID NO:2) (VEPGSGVRIVVEYCE; listed as Homo sapiens) | – | – | – | – | – | – | – | – | – | – | – | – | – | – | – | – | – | – | – | – | % Lysis EBV-B cell Target [1, 19]: 0.5%; % Lysis EBV-B cell Target [1, 20]: 1.2%; % Lysis EBV-B cell Target [1, 21]: 6.4%; lytic activity on EBV-B target cells pulsed with peptide [1, 22]: minimal lysis
9 | L345-54 (I54): peptide of ribosomal protein L3, positions 45-54 with Ile 54 (AFLGYKAGMI) | – | – | – | – | – | – | – | – | – | – | – | – | – | – | – | – | – | – | – | – | sensitization of B/C.N cells to lysis by tumor-specific CTL [13]: did not
10 | IEINGQLVF [peptide 67-75] | – | – | – | – | – | – | – | – | – | – | – | – | – | – | – | – | – | – | – | – | lytic activity on EBV-B target cells pulsed with peptide [1, 14]: 54.9%
11 | GVRIVVEYC [peptide 22-30] | – | – | – | – | – | – | – | – | – | – | – | – | – | – | – | – | – | – | – | – | % Lysis EBV-B cell Target [1, 19]: 72.8%; % Lysis EBV-B cell Target [1, 20]: 56.8%; % Lysis EBV-B cell Target [1, 21]: 100.3%; lytic activity on EBV-B target cells pulsed with peptide [1, 22]: very active
12 | L348-56 (T54): wild type ribosomal protein L3 peptide 48-56 with Thr 54 (GYKAGMTHI) [reference compound] | – | – | – | – | – | – | – | – | – | – | – | – | – | – | – | – | – | – | – | – | sensitization of B/C.N cells to lysis by tumor-specific CTL [13]: did not; peptide concentration to sensitize targets to lysis by CTL [13]: > 100 µM
